The target of data set [1] is human ROMK channel (Homo sapiens (Human), UniProt P48048). The data set can be described thus: FluxOR potassium ion channel assay, human ROMK/HEK293 cells. In kind it is cell-based. As for the experimental part: (§1) The method described hereafter was used for determining the inhibitory activity of the present compounds on human ROMK and rat ROMK channels.
(1) FluxOR™ potassium ion channel assay (F10016, Invitrogen)
(3) FlexStation3 microplate reader (Molecular Devices)
(4) Human ROMK/HEK293 cell: HEK293 cell line stably expressing the ROMK channel transfected by human ROMK cDNA (NCBI SEQ ID NO. NM-000220.4)
(§2) The inhibitory activity of the present compounds on human ROMK or rat ROMK channel was tested by the assay described above.

For data set [2], the target named is rat ROMK channel (Rattus norvegicus (Rat), UniProt P35560). Briefly: FluxOR potassium ion channel assay, rat ROMK/HEK293 cells. The class given is cell-based.
Sequence of rat ROMK channel (P35560 whole entry): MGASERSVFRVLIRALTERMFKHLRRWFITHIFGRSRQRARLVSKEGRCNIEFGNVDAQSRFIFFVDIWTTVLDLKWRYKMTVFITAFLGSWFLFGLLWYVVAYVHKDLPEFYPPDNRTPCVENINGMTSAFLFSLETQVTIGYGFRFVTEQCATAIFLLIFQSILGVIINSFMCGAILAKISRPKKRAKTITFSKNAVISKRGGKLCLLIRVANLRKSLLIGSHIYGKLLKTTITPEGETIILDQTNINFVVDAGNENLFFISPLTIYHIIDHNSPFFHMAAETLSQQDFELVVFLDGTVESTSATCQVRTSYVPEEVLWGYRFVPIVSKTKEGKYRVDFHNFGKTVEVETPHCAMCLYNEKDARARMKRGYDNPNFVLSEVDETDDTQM
From the text: as §1
(5) Rat ROMK/HEK293 cell: HEK293 cell line transfected by rat ROMK cDNA (NCBI SEQ ID NO. NM-017023.1) stably expressing the ROMK channel
The above procedures were repeated, except for replacing human ROMK/HEK293 cells with rat ROMK/HEK 293 cells, to determine the inhibition IC50 of the present compounds on rat ROMK channel.
as §2

For data set [3], the system named is SD rats. The data set can be described thus: Diuretic efficacy of ROMK inhibitors in SD rats. The class given is in vivo, rat. The conditions noted are these: for urinary sodium excretion increase compared with blank control group / urinary potassium compared with normal control group: 4 h; for urine output increase compared with blank control group: total urine in 4 h; for urinary potassium compared with normal control group / serum potassium change / serum sodium change: 0.03 and 0.1 mg/kg i.g. once; for serum potassium change / serum sodium change: P>0.05. On the procedure: The diuretic efficacy of compound 1 and positive control drug of ROMK inhibitor on SD rats was evaluated.
Male SD rats were purchased from SINO-BRITSH SIPPR/BK LAB. ANIMAL LTD., CO (Shanghai, China, Certificate No. 2008001647752, License SCXK (Shanghai) 2013-0016). The rats were 120-130 g, and fed at 5/cage, in a 12/12 hours light/dark cycle regulation, at a constant temperature of 23±1° C., humidity of 50˜60%, and free access to water and food. The male SD rats were acclimated to this condition for 7 days before their use in the diuresis experiment.
The experiment was carried out according to the method disclosed in PCT Patent Application Publication WO2010129379A1 After adaptive feeding, the rats were placed in metabolism cages and fasted overnight. The rats were weighed and randomly divided into the following groups: blank control group, compound 1 tested drug 0.03 mg/kg group and 0.1 mg/kg group, and the positive control group 0.03 mg/kg and group 0.1 mg/kg, with 10 rats for each group. Each rat was intragastrically administered each compound (ig, 1 ml/kg). The rats in the blank control group were fed with the corresponding solvent. After intragastric administration, the rats were placed in the normal cage. After 30 min, 25 ml/kg normal saline was given. Rats were put into the metabolic cages, and fasting for food and water began immediately. The total urine volume in 4 h was collected and measured. The urinary sodium and urinary potassium excretion in 4 h were also measured. The orbital serum was collected after the collection of urine to test the serum sodium and serum potassium concentrations.
The experimental data were expressed as mean±standard deviation (S.D.). The data was statistically compared using the t test of excel.

Data set [4] in a line: Solubility observed when preparing the dosing formulation. In kind it is physicochemical. The conditions noted are these: preparation of dosing formulation for the diuresis experiment. The source says: In this experiment, the solubility of the test compound 1 was very good. There was no delamination phenomenon. […] After fully grinding, the solubility improved. […] Moreover, the effect was dose-dependent for each dose of the test compound 1 and the positive control drug.

Data set [5] deals with ROMK potassium channel (Homo sapiens (Human), UniProt P48048). Briefly: Electrophysiological manual patch clamp on ROMK potassium channel (human ROMK/HEK293 cells). In kind it is cell-based. The source says:
The experiment was designed to test the effect of compounds on ROMK potassium channel in HEK 293 in vitro. ROMK potassium channel is stably expressed on the HEK293 cells of the present application. After the potassium ion current was stabilized, the effect of the present compound on the potassium channel was obtained by comparing the potassium current obtained before and after the use of the present compound at different concentrations.
(2) Human ROMK/HEK293 cell: HEK293 cell line stably expressing the ROMK channel transfected by human ROMK cDNA (NCBI SEQ ID NO. NM-000220.4);
(3) Extracellular fluid (mM): NaCl, 137; KCl, 4; CaCl2, 1.8; MgCl2, 1; HEPES, 10; glucose, 10; pH 7.4 (NaOH titration); and
(4) Intracellular fluid (mM): K Aspartate, 130; MgCl2, 5; EGTA 5; HEPES, 10; Tris-ATP, 4; pH 7.2 (KOH titration).
Test compounds were dissolved in dimethyl sulfoxide (DMSO) and then stocked at room temperature. […]
A manual patch clamp system was used for whole-cell current record in this experiment. […] After the ROMK potassium current recorded in the above steps was stabilized under continuous perfusion with extracellular liquid in the recording bath, the drug to be tested was perfused until the inhibition of the drug on the ROMK current reached a steady state. […]
The data were analyzed by HEKA Patchmaster, XLFit and Graphpad Prism data analysis software.

A short description of data set [6]: Pharmacokinetics assay in SD rats, intragastric administration. The class given is in vivo. As to conditions: both sexes, Sprague-Dawley, rat, plasma, oral 5 mg/kg. On the procedure: Rats were used as test animals. The drug concentration in plasma at different time points was determined by LC/MS/MS after administration of the compounds to rats. The pharmacokinetic behavior of the present compounds was studied and evaluated in rats.
Four (4) healthy adult Sprague-Dawley (SD) rats, half male and half female, were purchased from SINO-BRITSH SIPPR/BK LAB. ANIMAL LTD., CO, with Certificate No.: SCXK (Shanghai) 2008-0016.
The appropriate amount of the test compounds was weighed, and added with 0.5% CMC-Na to a final volume to prepare a 0.5 mg/mL suspension by ultrasonication.
Following fasting overnight, 4 SD rats, half male and half female were administered intragastrically a dose of 5.0 mg/kg and an administration volume of 10 mL/kg.
Blood (0.1 mL) was sampled from orbital sinus before administration and 0.5 h, 1.0 h, 2.0 h, 4.0 h, 6.0 h, 8.0 h, 11.0 h, and 24.0 h after administration. The samples were stored in EDTA anticoagulation tubes, and centrifuged for 10 minutes at 3,500 rpm to separate the blood plasma. The plasma samples were stored at −20° C. The rats were fed 2 hours after administration.
The plasma concentration of the test compounds in rats after intragastric administration was determined by LC-MS/MS. Plasma samples were analyzed after pretreatment by protein precipitation.

Sequence of human ROMK channel (P48048 whole entry): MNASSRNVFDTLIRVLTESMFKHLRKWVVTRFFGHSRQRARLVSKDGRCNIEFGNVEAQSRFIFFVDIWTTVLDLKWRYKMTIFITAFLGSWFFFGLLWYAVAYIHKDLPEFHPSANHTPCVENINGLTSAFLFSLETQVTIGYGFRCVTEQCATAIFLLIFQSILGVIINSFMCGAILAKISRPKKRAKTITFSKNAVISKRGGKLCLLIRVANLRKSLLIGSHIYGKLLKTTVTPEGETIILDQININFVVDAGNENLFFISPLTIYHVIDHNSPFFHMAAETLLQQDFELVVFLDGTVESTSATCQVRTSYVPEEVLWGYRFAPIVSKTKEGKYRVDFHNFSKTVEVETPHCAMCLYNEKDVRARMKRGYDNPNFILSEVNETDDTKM
Sequence of ROMK potassium channel (P48048 whole entry): as above

What is called IC50 is the concentration that gives 50% inhibition. In the case of `CCOc1cc(C(=O)NC2CCN(C[C@H](O)c3ccc4c(c3C)COC4=O)CC2)ncc1C#N` [Example 2, (R)-5-cyano-4-ethoxy-N-(1-(2-hydroxy-2-(4-methyl-1-oxo-1,3-dihydroisobenzofuran-5-yl)ethyl)piperidin-4-yl)picolinamide], the IC50 was 28 nM in data set [1] and 89 nM in data set [2].
As to `Cc1cc(C(=O)NC2CCN(C[C@H](O)c3ccc4c(c3C)COC4=O)CC2)ncc1C#N` [positive control drug, reference compound], in data set [3] (0.03 mg/kg i.g. once), the “urinary sodium excretion increase compared with blank control group” value (“urinary sodium excretion increase” for short) is 1.57 times and the “urine output increase compared with blank control group” value (from here on “urine output increase”) is 1.41 times. In data set [3] (0.1 mg/kg i.g. once), the “urinary sodium excretion increase” value stood at 1.65 times and the “urine output increase” value turned out to be 1.46 times. Besides, in data set [3], the “urinary potassium compared with normal control group” value is “slightly elevated, but not statistically significant”; the serum potassium change result was “changed a little”; the serum sodium change result is reported as “changed a little”. Further, in data set [4], the “solubility (in words)” value is “poor solubility”.
As usually defined, the AUC is the area under the concentration-time curve, a measure of exposure. The MRT is the average time that molecules of a dose stay in the body. The term Cmax denotes the highest concentration seen after dosing. With `COc1cc(C(=O)NC2CCN(C[C@H](O)c3ccc4c(c3C)COC4=O)CC2)ncc1C#N` [Example 1, (R)-5-cyano-N-(1-(2-hydroxy-2-(4-methyl-1-oxo-1,3-dihydroisobenzofuran-5-yl)ethyl)piperidin-4-yl)-4-methoxypicolinamide], the IC50 in data set [5] came out at 18.7 nM; in data set [1] it was 40 nM; in data set [2] it was 192 nM. The Vd/F in data set [6] (read-out: Apparent Distribution Volume Vz/F) came to 3.02 ± 0.841 L/kg. Further, in data set [6] (read-out: Area Under Curve AUC), the AUC was 9280 ± 3050 ng·h/mL. For the same compound, the CL/F in data set [6] (read-out: Clearance CLz/F) amounted to 9.82 ± 3.5 mL/min/kg. The MRT in data set [6] (read-out: Mean Residence Time MRT) is 5.51 ± 0.75 h. Further, the Cmax in data set [6] (read-out: Plasma Conc. Cmax) was 1330 ± 388 ng/mL. Also, the figures for the “urinary sodium excretion increase” value in data set [3] (0.03 mg/kg i.g. once) and in data set [3] (0.1 mg/kg i.g. once) were 3.12 times and 3.31 times, respectively. The “urine output increase” value in data set [3] (0.03 mg/kg i.g. once) came out at 2.76 times; in data set [3] (0.1 mg/kg i.g. once), 3.22 times. In data set [3], the “urinary potassium compared with normal control group” value was “slightly elevated, but not statistically significant”. Besides, the serum potassium change result in data set [3] is on record as “changed a little”. The serum sodium change result in data set [3] was “changed a little”. Moreover, the “solubility (in words)” value in data set [4] is listed as “very good”.

(Values after patent US10364234B2, “Pyridinecarboxamide derivatives, preparation method thereof and pharmaceutical uses thereof” (Jiangsu Hengrui Medicine Co., Ltd., priority 2014, dated 2019).)
